# Experimental data published in patent publication US6518243B1, “Desleucyl glycopeptide antibiotics and methods of making same” (Trustees of Princeton University, priority 1999, dated 2003).
# How the values were obtained:
# E. faceium (ATCC 49624) = assay: Zone of inhibition screen, 96 well agar array format;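 also: score 3 means fourfold and score 4 sixteenfold the reference zone size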; format: cell-based, E. faecium
# Method: The antibacterial activity of each of the compounds against the bacterial strains E. faceium (ATCC 49624), S. epidermidis (ATCC 12228), S. aureus (ATCC 29213), E. faecalis (CL 4877) and E. faecalis (ATCC 292121) was tested. Each of the compounds was screened in a 96 will agar array format.
# S. aureus (ATCC 29213) = assay: as above; format: cell-based; set-up: scale not given here
# Summary of the method: (§1)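 Read-out is antibacterial activity on agar laid out as a 96-well array; every compound went through all strains of the panel.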
# [1] = test system: S. epidermidis (ATCC 12228); assay: as above; format: cell-based; set-up: scale not given here
# Summary of the method: as §1
# E. faecium CL 4931 = assay: MIC determination in BHI media, OD600; format: cell-based; settings: BHI + 0.1% casamino acids, 18 hours at 37° C., ≧90% OD600 inhibition
# Method: (§2) Logarithmically growing cells were diluted to approximately 5×10^5 CFU/ml and subjected to test compounds solubilized and serially diluted in DMSO. […] After 18 hours at 37° C., the OD600 was determined by reading the ninety-six well microtiter plates on a microplate reader. For a given concentration, an MIC determination was made if: […]
# E. faecium ATCC 49624 = assay: MIC determination in BHI media, OD600; format: cell-based; settings: BHI + 0.1% casamino acids, 18 hours at 37° C., ≧90% OD600 inhibition
# Method: as §2
# S. Aureus ATCC 33591 = assay: MIC determination in BHI media, OD600; format: cell-based; settings: BHI + 0.1% casamino acids, 18 hours at 37° C., ≧90% OD600 inhibition
# Method: as §2
# E. faecalis (CL 4877) = assay: Zone of inhibition screen, 96 well agar array format; format: cell-based; set-up: scale not given here
# Summary of the method: as §1
# S aureus ATCC 29213 = assay: MIC determination in BHI media, OD600; format: cell-based; settings: BHI + 0.1% casamino acids, 18 hours at 37° C., ≧90% OD600 inhibition
# Method: as §2
# [2] = zone of inhibition relative to 1 mg/ml stock solution of p-chlorobiphenylvancomycin
# [3] = zone of inhibition relative to 1 mg/ml p-chlorobiphenylvancomycin
MIC E. faecium CL 4931 (E. faecium CL 4931) [µg/mL],MIC E. faecium ATCC 49624 (E. faecium ATCC 49624) [µg/mL],MIC S. aureus ATCC 33591 (S. Aureus ATCC 33591) [µg/mL],MIC S. aureus ATCC 29213 (S aureus ATCC 29213) [µg/mL],SMILES,"zone score, E. faecium ATCC 49624 (E. faceium (ATCC 49624); [2])","zone score, S. epidermidis ATCC 12228 [1, 2]",other results
> 25,–,0.78,0.78,C[C@H]1O[C@H](O[C@H]2[C@H](Oc3c4cc5cc3Oc3ccc(cc3Cl)[C@@H](O)[C@@H](NC(=O)[C@@H](N)CCC(=O)OCc3ccccc3)C(=O)N[C@@H](CC(N)=O)C(=O)N[C@H]5C(=O)N[C@H]3C(=O)N[C@H](C(=O)N[C@@H](C(=O)O)c5cc(O)cc(O)c5-c5cc3ccc5O)[C@H](O)c3ccc(c(Cl)c3)O4)O[C@H](CO)[C@@H](O)[C@@H]2O)C[C@@](C)(NCc2ccc(-c3ccc(Cl)cc3)cc2)[C@H]1O [Compound 26],–,–,"zone score, E. faecalis CL 4877 (E. faecalis (CL 4877); [2]): 2; zone score, S. aureus ATCC 29213 (S. aureus (ATCC 29213); [2]): 2"
25,0.39,0.78,0.78,CC1OC(OC2C(Oc3c4cc5cc3Oc3ccc(cc3Cl)C(O)C3NC(=O)C(NC(=O)C5NC(=O)C(CC(N)=O)NC(=O)C(NC(=O)C(N)CSSC(C)(C)C)C(O)c5ccc(c(Cl)c5)O4)c4ccc(O)c(c4)-c4c(O)cc(O)cc4C(C(=O)O)NC3=O)OC(CO)C(O)C2O)CC(C)(NCc2ccc(-c3ccc(Cl)cc3)cc2)C1O (stereo not drawn) [Compound 345],–,–,–
–,0.78,0.78,0.78,CC(C)CC(N)C(=O)NC1C(=O)NC(CC(N)=O)C(=O)NC2C(=O)NC3C(=O)NC(C(=O)NC(C(=O)O)c4cc(O)cc(O)c4-c4cc3ccc4O)C(O)c3ccc(c(Cl)c3)Oc3cc2cc(c3OC2OC(CO)C(O)C(O)C2OC2CC(C)(NCc3ccc(-c4ccc(Cl)cc4)cc3)C(O)C(C)O2)Oc2ccc(cc2Cl)C1O (stereo not drawn) [Compound 38],2,–,"zone score, S. aureus ATCC 29213 (S. aureus (ATCC 29213); [2]): 2"
25,0.25,0.39,0.39,CCOCC(N)C(=O)NC1C(=O)NC(CC(N)=O)C(=O)NC2C(=O)NC3C(=O)NC(C(=O)NC(C(=O)O)c4cc(O)cc(O)c4-c4cc3ccc4O)C(O)c3ccc(c(Cl)c3)Oc3cc2cc(c3OC2OC(CO)C(O)C(O)C2OC2CC(C)(NCc3ccc(-c4ccc(Cl)cc4)cc3)C(O)C(C)O2)Oc2ccc(cc2Cl)C1O (stereo not drawn) [Compound 524],–,–,–
25,–,–,–,CC1OC(OC2C(Oc3c4cc5cc3Oc3ccc(cc3Cl)C(O)C3NC(=O)C(NC(=O)C5NC(=O)C(CC(N)=O)NC(=O)C(NC(=O)C(N)CSCc5ccccc5)C(O)c5ccc(c(Cl)c5)O4)c4ccc(O)c(c4)-c4c(O)cc(O)cc4C(C(=O)O)NC3=O)OC(CO)C(O)C2O)CC(C)(NCc2ccc(-c3ccc(Cl)cc3)cc2)C1O (stereo not drawn) [Compound 332],–,–,–
25,0.39,0.78,0.78,CC1OC(OC2C(Oc3c4cc5cc3Oc3ccc(cc3Cl)C(O)C3NC(=O)C(NC(=O)C5NC(=O)C(CC(N)=O)NC(=O)C(NC(=O)C(N)COCc5ccccc5)C(O)c5ccc(c(Cl)c5)O4)c4ccc(O)c(c4)-c4c(O)cc(O)cc4C(C(=O)O)NC3=O)OC(CO)C(O)C2O)CC(C)(NCc2ccc(-c3ccc(Cl)cc3)cc2)C1O (stereo not drawn) [Compound 342],–,–,–

# Continued, compound first:
SMILES,MIC E. faecium CL 4931 (E. faecium CL 4931) [µg/mL],MIC E. faecium ATCC 49624 (E. faecium ATCC 49624) [µg/mL],MIC S. aureus ATCC 33591 (S. Aureus ATCC 33591) [µg/mL],MIC S. aureus ATCC 29213 (S aureus ATCC 29213) [µg/mL],"zone score, E. faecium ATCC 49624 (E. faceium (ATCC 49624); [2])","zone score, S. epidermidis ATCC 12228 [1, 2]",other results
CC(=O)NCSC(C)(C)C(N)C(=O)NC1C(=O)NC(CC(N)=O)C(=O)NC2C(=O)NC3C(=O)NC(C(=O)NC(C(=O)O)c4cc(O)cc(O)c4-c4cc3ccc4O)C(O)c3ccc(c(Cl)c3)Oc3cc2cc(c3OC2OC(CO)C(O)C(O)C2OC2CC(C)(NCc3ccc(-c4ccc(Cl)cc4)cc3)C(O)C(C)O2)Oc2ccc(cc2Cl)C1O (stereo not drawn) [Compound 84],–,–,–,–,2,2,"zone score, S. aureus ATCC 29213 (S. aureus (ATCC 29213); [2]): 2"
CNC(COC(C)(C)C)C(=O)NC1C(=O)NC(CC(N)=O)C(=O)NC2C(=O)NC3C(=O)NC(C(=O)NC(C(=O)O)c4cc(O)cc(O)c4-c4cc3ccc4O)C(O)c3ccc(c(Cl)c3)Oc3cc2cc(c3OC2OC(CO)C(O)C(O)C2OC2CC(C)(NCc3ccc(-c4ccc(Cl)cc4)cc3)C(O)C(C)O2)Oc2ccc(cc2Cl)C1O (stereo not drawn) [Compound 343],25,0.39,0.78,–,–,–,–
CC(=O)NCCCCC(N)C(=O)NC1C(=O)NC(CC(N)=O)C(=O)NC2C(=O)NC3C(=O)NC(C(=O)NC(C(=O)O)c4cc(O)cc(O)c4-c4cc3ccc4O)C(O)c3ccc(c(Cl)c3)Oc3cc2cc(c3OC2OC(CO)C(O)C(O)C2OC2CC(C)(NCc3ccc(-c4ccc(Cl)cc4)cc3)C(O)C(C)O2)Oc2ccc(cc2Cl)C1O (stereo not drawn) [Compound 76],–,–,–,–,2,2,–
CC1OC(OC2C(Oc3c4cc5cc3Oc3ccc(cc3Cl)C(O)C3NC(=O)C(NC(=O)C5NC(=O)C(CC(N)=O)NC(=O)C(NC(=O)CC(O)C[N+](C)(C)C)C(O)c5ccc(c(Cl)c5)O4)c4ccc(O)c(c4)-c4c(O)cc(O)cc4C(C(=O)O)NC3=O)OC(CO)C(O)C2O)CC(C)(NCc2ccc(-c3ccc(Cl)cc3)cc2)C1O (mixture of isomers) [Compound 151],–,–,–,–,2,2,"zone score, E. faecalis CL 4877 (E. faecalis (CL 4877); [2]): 2"
CC(OC(C)(C)C)C(N)C(=O)NC1C(=O)NC(CC(N)=O)C(=O)NC2C(=O)NC3C(=O)NC(C(=O)NC(C(=O)O)c4cc(O)cc(O)c4-c4cc3ccc4O)C(O)c3ccc(c(Cl)c3)Oc3cc2cc(c3OC2OC(CO)C(O)C(O)C2OC2CC(C)(NCc3ccc(-c4ccc(Cl)cc4)cc3)C(O)C(C)O2)Oc2ccc(cc2Cl)C1O (stereo not drawn) [Compound 344],25,0.78,–,–,–,–,–
CCOCC(=O)NC1C(=O)NC(CC(N)=O)C(=O)NC2C(=O)NC3C(=O)NC(C(=O)NC(C(=O)O)c4cc(O)cc(O)c4-c4cc3ccc4O)C(O)c3ccc(c(Cl)c3)Oc3cc2cc(c3OC2OC(CO)C(O)C(O)C2OC2CC(C)(NCc3ccc(-c4ccc(Cl)cc4)cc3)C(O)C(C)O2)Oc2ccc(cc2Cl)C1O (stereo not drawn) [Compound 287],25,–,–,–,–,–,"zone score, E. faecalis CL 4877 (E. faecalis (CL 4877); [3]): 2; zone score, S. aureus ATCC 29213 (S. aureus (ATCC 29213); [3]): 2; zone score, S. epidermidis ATCC 12228 [1, 3]: 2"
COCC(=O)NC1C(=O)NC(CC(N)=O)C(=O)NC2C(=O)NC3C(=O)NC(C(=O)NC(C(=O)O)c4cc(O)cc(O)c4-c4cc3ccc4O)C(O)c3ccc(c(Cl)c3)Oc3cc2cc(c3OC2OC(CO)C(O)C(O)C2OC2CC(C)(NCc3ccc(-c4ccc(Cl)cc4)cc3)C(O)C(C)O2)Oc2ccc(cc2Cl)C1O (stereo not drawn) [Compound 303],25,–,–,–,–,–,"zone score, S. epidermidis ATCC 12228 [1, 3]: 2"
CC1OC(OC2C(Oc3c4cc5cc3Oc3ccc(cc3Cl)C(O)C3NC(=O)C(NC(=O)C5NC(=O)C(CC(N)=O)NC(=O)C(NC(=O)C(CC(N)=O)NC(=O)OC(C)(C)C)C(O)c5ccc(c(Cl)c5)O4)c4ccc(O)c(c4)-c4c(O)cc(O)cc4C(C(=O)O)NC3=O)OC(CO)C(O)C2O)CC(C)(NCc2ccc(-c3ccc(Cl)cc3)cc2)C1O (stereo not drawn) [Compound 135],> 25,0.39,–,–,–,2,"zone score, S. aureus ATCC 29213 (S. aureus (ATCC 29213); [2]): 2"
CCOCC(NC)C(=O)NC1C(=O)NC(CC(N)=O)C(=O)NC2C(=O)NC3C(=O)NC(C(=O)NC(C(=O)O)c4cc(O)cc(O)c4-c4cc3ccc4O)C(O)c3ccc(c(Cl)c3)Oc3cc2cc(c3OC2OC(CO)C(O)C(O)C2OC2CC(C)(NCc3ccc(-c4ccc(Cl)cc4)cc3)C(O)C(C)O2)Oc2ccc(cc2Cl)C1O (stereo not drawn) [Compound 527],25,0.25,0.39,0.39,–,–,–
CC1OC(OC2C(Oc3c4cc5cc3Oc3ccc(cc3Cl)C(O)C3NC(=O)C(NC(=O)C5NC(=O)C(CC(N)=O)NC(=O)C(NC(=O)CNC(=O)CN)C(O)c5ccc(c(Cl)c5)O4)c4ccc(O)c(c4)-c4c(O)cc(O)cc4C(C(=O)O)NC3=O)OC(CO)C(O)C2O)CC(C)(NCc2ccc(-c3ccc(Cl)cc3)cc2)C1O (stereo not drawn) [Compound 68],–,0.39,0.78,0.78,2,–,–
CC(=O)c1ccc(C(=O)NC2C(=O)NC(CC(N)=O)C(=O)NC3C(=O)NC4C(=O)NC(C(=O)NC(C(=O)O)c5cc(O)cc(O)c5-c5cc4ccc5O)C(O)c4ccc(c(Cl)c4)Oc4cc3cc(c4OC3OC(CO)C(O)C(O)C3OC3CC(C)(NCc4ccc(-c5ccc(Cl)cc5)cc4)C(O)C(C)O3)Oc3ccc(cc3Cl)C2O)cc1 (stereo not drawn) [Compound 267],–,–,–,–,–,–,"zone score, E. faecium ATCC 49624 (E. faceium (ATCC 49624); [3]): 2; zone score, S. epidermidis ATCC 12228 [1, 3]: 2"
CC1OC(OC2C(Oc3c4cc5cc3Oc3ccc(cc3Cl)C(O)C3NC(=O)C(NC(=O)C5NC(=O)C(CC(N)=O)NC(=O)C(NC(=O)CNC(=O)C5CCCN5)C(O)c5ccc(c(Cl)c5)O4)c4ccc(O)c(c4)-c4c(O)cc(O)cc4C(C(=O)O)NC3=O)OC(CO)C(O)C2O)CC(C)(NCc2ccc(-c3ccc(Cl)cc3)cc2)C1O (stereo not drawn) [Compound 85],–,–,–,–,2,2,"zone score, E. faecalis CL 4877 (E. faecalis (CL 4877); [2]): 2; zone score, S. aureus ATCC 29213 (S. aureus (ATCC 29213); [2]): 2"
CC1OC(OC2C(Oc3c4cc5cc3Oc3ccc(cc3Cl)C(O)C3NC(=O)C(NC(=O)C5NC(=O)C(CC(N)=O)NC(=O)C(NC(=O)C5CC(O)CN5)C(O)c5ccc(c(Cl)c5)O4)c4ccc(O)c(c4)-c4c(O)cc(O)cc4C(C(=O)O)NC3=O)OC(CO)C(O)C2O)CC(C)(NCc2ccc(-c3ccc(Cl)cc3)cc2)C1O (stereo not drawn) [Compound 72],–,–,–,–,2,2,"zone score, E. faecalis CL 4877 (E. faecalis (CL 4877); [2]): 2"
